Assay results: patent publication US5691348A, “Pyridyl imidazole derivatives and processes for the preparation thereof” (Daewoo Electronics Co., Ltd., priority 1994, dated 1997)

Tests used:
unanesthetized dogs = experiment: Maximum blood pressure lowering effect in unanesthetized dogs at different amounts; format: in vivo, dog
angiotensin II receptor = experiment: Angiotensin II receptor binding assay ([3H] angiotensin II); parameters: species or system rat (Sprague-Dawley adrenal cortex/medulla; Wistar liver); settings: 25° C., 60 minutes, test concentration not given
Method: 1. Angiotensin II receptor binding assay
In accordance with the procedure disclosed in Chiu, A. T. et al., Eur. J. Pharm., 157, 13(1981), a ligand marked with a radioisotope was reacted with an angiotensin II receptor and the reactant was filtered with a glass fiber to remove unreacted ligand. After washing the filter, the amount of the remaining isotope was measured to determine the binding activity of the ligand, as described below in detail.
Sprague-Dawley rats and Wistar rats of 250 to 350 g (from The Korea Research Institute of Chemical Technology) were tested and the test procedures were carried out at 4° C., unless otherwise specified. Adrenal gland was separated from the Sprague-Dawley rats (liver, in the case of Wistar rats) into cortex and medulla. The separated adrenal cortex and medulla were washed with a sucrose buffer solution (0.2M sucrose, 1 mM EDTA, 10 mM Tris, Ph 7.2) and homogenized in the same buffer solution by using a Teflon pestle and a Brinkmann homogenizer. The homogenates were centrifuged at 3,000× g for 10 minutes to remove precipitates and further centrifuged at 12,000× g for 13 minutes. The final supernatants were centrifuged at 102,000× g for 1 hour to obtain precipitates, which were washed with a Tris buffer solution (50 mM Tris, 5 mM MgCl2, pH 7.2) and recentrifuged at 102,000× g for 1 hour. The resulting precipitates were immediately processed at the following step or stored at -70° C.
The precipitates were suspended in a Tris buffer solution. The amount of protein was determined by using a Bio-Rad DC protein analyzing kit and the protein concentration was adjusted to the amounts of: 0.2 to 0.3 mg/ml (Sprague-Dawley rat: adrenal cortex), 1.5 to 2.0 mg/ml (Sprague-Dawley rat: adrenal medulla), and 1.5 to 2.0 mg/ml (Wistar rat: liver). To the suspension, bovine serum albumin(BSA) was added to a concentration of 0.25 wt % and the resultant was immediately processed at the following step or stored at -70° C.
50 μl (based on ligand) of [^3 H] angiotensin II (NEN, NET-446) and 10 μl of each of the test compounds with various concentrations were added to the buffer solution (50 mM Tris (pH 7.2), 5 mM MgCl2, 0.25% BSA) to adjust the final volume to be 0.5 ml. 100 μl of the receptor suspension was added thereto and the resulting solution was reacted for 60 minutes while stirring in a water bath at 25° C. 3 ml of cold buffer solution for analysis was added to cease the reaction. The isotope which was bound to the receptor was isolated from the resultant by using Brandel Cell Harvester System with Whatman glass fiber GF/C. After washing the filter, the radioactivity of the filter was determined by using a liquid scintillation counter. Binding inhibition(%) of the test compound was calculated as follows:
Binding Inhibition(%)=[{(T-B)-(S-B)}/(T-B)]×100
wherein T is the radioactivity (cpm) of the reaction product untreated with the test compound, S is the radioactivity (cpm) of the reaction product treated with the test compound, and B is the radioactivity (cpm) of blank test.

renal hypertensive rats = experiment: Duration of action in renal hypertensive rats; format: in vivo, Sprague-Dawley rat; settings: 3 mg/kg oral
Source text: To induce renal hypertension, left renal artery of 4 week-old male Sprague-Dawley rat (from The Korea Research Institute of Chemical Technology) was ligated. The rat was anesthetized with ether and the surgical region on the left abdomen of the rat was shaved, disinfected, and then incised about 1 cm vertically. The renal artery near abdominal aorta was isolated carefully from surrounding tissues and veins, and then ligated completely with a suture (4/0 sterile surgical silk). The muscular strata and skin of the surgical area were sutured with a suture (4/0 sterile surgical silk). The surgical region was disinfected to prevent infection and thereafter, 200 to 250 mg/kg/day of cephazolin sodium was injected intramuscularly for 2 days. 6 to 8 days after the ligation, rats showing systolic pressure of more than 180 mmHg were selected for renal hypertension test. The blood pressure was determined by a tail-cuff method from the tail under unanesthetized condition (Gerold, M. et al., Arzneimittel-Forsch., 18, 1285(1968)).
Each of the compounds to be tested was administered intravenously or orally into the renal hypertensive rat. The blood pressure of the rat was determined by direct method (Chiu, A. T. et al., J. Pharmacol. Exp. Ther., 250, 867(1989)) using a catheter. The rat was anesthetized with ketamine hydrochloride (125 mg/kg, i.p.) and a catheter was filled with saline and inserted into a carotid artery and […]. The surgical area was sutured with a metal clip. The rat was relaxed at least 3 hours and the catheter in the carotid artery was adapted to an isotec pressure transducer to determine the blood pressure and heart rate with a physiograph (Linearcorder WR3310). After the blood pressure was stabilized, the test compound was administered intravenously or orally. For intravenous administration, the administered volume and washing volume were 1.0 ml/kg and 0.2 ml, respectively. The blood pressure and heart rate were measured in regular intervals up to 24 hours after the administration of the test compound and compared with those measured after the administration of the control compound Losartan.
The test compound was dissolved in 0.05N KOH for intravenous administration and suspended in Tween 80 for oral administration.
The compound of Example 1 and the Merck compound were tested using the hypertensive rats of test 2(i). 3 mg/kg of each compound was administered orally and blood pressure lowering effect with time was determined to measure the duration of action of the compounds.

With `CCCCc1nc2cc(-c3cccc[n+]3[O-])c(CO)nc2n1Cc1ccc(-c2ccccc2-c2nn[nH]n2)cc1` [Example 1, 2-Butyl-5-hydroxymethyl-6-(1-oxy-pyridin-2-yl)-3-[2'-(1H-tetrazol-5-yl)-biphenyl-4-ylmethyl]-3H-imidazo[4,5-b]pyridine] the “Maximum Blood Pressure Lowering Effect” value (unanesthetized dogs; 0.3 mg/kg) was -17%, the “Maximum Blood Pressure Lowering Effect” value (unanesthetized dogs; 1 mg/kg) was -25% and the “Binding Inhibition” value (angiotensin II receptor) was 85.4%. The “Maximum Blood Pressure Lowering Effect” value (renal hypertensive rats; 0 min) was 0%, the “Maximum Blood Pressure Lowering Effect” value (renal hypertensive rats; 10 min) was -11% and the “Maximum Blood Pressure Lowering Effect” value (renal hypertensive rats; 20 min) was -19%. The “Maximum Blood Pressure Lowering Effect” value (renal hypertensive rats; 30 min) was -32%, the “Maximum Blood Pressure Lowering Effect” value (renal hypertensive rats; 60 min) was -48% and the “Maximum Blood Pressure Lowering Effect” value (renal hypertensive rats; 90 min) was -42%. The “Maximum Blood Pressure Lowering Effect” value (renal hypertensive rats; 120 min) was -44%, the “Maximum Blood Pressure Lowering Effect” value (renal hypertensive rats; 240 min) was -58% and the “Maximum Blood Pressure Lowering Effect” value (renal hypertensive rats; 360 min) was -60%. The “Maximum Blood Pressure Lowering Effect” value (renal hypertensive rats; 1320 min) was -48%, the “Maximum Blood Pressure Lowering Effect” value (renal hypertensive rats; 1440 min) was -49% and the “duration of action compared with the Merck compound” value (renal hypertensive rats; renal hypertensive rats) was “far longer duration of action than the Merck compound”.
